EC50 data for two compounds are collected here from ChEMBL document CHEMBL3120157, “Structures and solution conformational dynamics of stylissamides G and H from the Bahamian sponge Stylissa caribica” (J Nat Prod, 2014).

This assay has as its system HCT-116. Put plainly: Cytotoxicity against human HCT116 cells assessed as cell viability by MTS assay. The class given is functional, cell-based. On the technique in general: Tetrazolium dyes change colour on reduction, which living cells bring about.

SMILES strings stand for the structures. Residues, ends and D or L forms follow the SMILES beside them. Where only a bound is given, the exact number is not on record here.

Turning to `CC[C@H](C)[C@@H]1NC(=O)[C@@H]2CCCN2C(=O)[C@H](Cc2c[nH]c3ccccc23)NC(=O)[C@@H]2CCCN2C(=O)[C@H](C(C)C)NC(=O)[C@H](Cc2ccccc2)NC(=O)[C@H](CO)NC1=O` (cyclo(FVPWPIS)), the EC50 (usually the concentration giving half of the maximal effect) was 5.7 µM.

On to `CC[C@H](C)[C@@H]1NC(=O)[C@H](CC(C)C)NC(=O)[C@@H]2CCCN2C(=O)[C@H](Cc2ccccc2)NC(=O)[C@@H]2CCCN2C(=O)[C@H](Cc2ccccc2)NC(=O)[C@@H]2CCCN2C1=O` (cyclo(FPFPLIP)), for which the EC50 was over 200 µM.
